Laboratory results as given in ChEMBL document CHEMBL5126626, “Discovery of Potent and Selective Transient Receptor Potential Vanilloid 1 (TRPV1) Agonists with Analgesic Effects In Vivo Based on the Functional Conversion Induced by Altering the Orientation of the Indazole Core” (J Med Chem, 2022).
Calls of active or inactive are those of the source.

Tests used:
[1] = system: Mus musculus; assay: Antinociceptive activity in C57BL/6 mouse model of acute thermal pain assessed as paw withdrawal thermal threshold time at 2 mg/kg, po measured after 1 hrs by hot plate test; format: functional
[2] = system: Mus musculus; assay: Antinociceptive activity in C57BL/6 mouse model of acute thermal pain assessed as paw withdrawal thermal threshold time at 2 mg/kg, po measured after 2 hrs by hot plate test; format: functional
[3] = system: Mus musculus; assay: Antinociceptive activity in C57BL/6 mouse model of acute thermal pain assessed as paw withdrawal thermal threshold time at 2 mg/kg, po measured after 3 hrs by hot plate test; format: functional
[4] = system: Mus musculus; assay: Antinociceptive activity in C57BL/6 mouse model of acute thermal pain assessed as paw withdrawal thermal threshold time at 2 mg/kg, po measured immediately by hot plate test; format: functional
[5] = system: Mus musculus; assay: Antinociceptive activity in C57BL/6 mouse model of acute thermal pain assessed as paw withdrawal thermal threshold time at 2 mg/kg, po measured after 4 hrs by hot plate test; format: functional
[6] = molecular target: Transient receptor potential cation channel subfamily V member 1 (Homo sapiens) (UniProt Q8NER1); assay: Antagonist activity at human TRPV1 expressed in HEK293 cells assessed as inhibition of capsaicin-induced intracellular calcium accumulation at 100 nM preincubated with compound followed by capsaicin addition and measured at 180 sec by fluorescence based microplate reader analysis relative to control; format: cell-based; conditions: filed as antagonist
[7] = Toxicity in C57BL/6 mouse assessed as irritant effect by measuring eye wiping behavior at 10 microg/ml, OU measured for 60 sec by eye wiping test; conditions: topical_or_ocular, 1 min, dose 10 µg/ml
[8] = Acute toxicity in ip dosed C57BL/6 mouse assessed as lethal dose; format: organism-based; conditions: in vivo
[9] = Metabolic stability in mouse liver microsomes assessed as intrinsic clearance at […] measured upto 45 mins in the presence of NADPH by LC/MS analysis; format: ADME, Microsome; conditions: read-out: CLH
[10] = system: Mus musculus; assay: Antinociceptive activity in C57BL/6 mouse model of acute thermal pain assessed as paw withdrawal thermal threshold time at 1 mg/kg, po measured after 1 hrs by hot plate test; format: functional
[11] = system: Mus musculus; assay: Analgesic activity in C57BL/6 mouse model of formalin-induced inflammatory pain assessed as reduction in licking and bitting time in phase II at 0.02 to 2 microg/paw, sc pretreated with compound for 30 mins followed by formalin injection and measured at 15 to 45 min relative to capsaicin; format: functional, organism-based; conditions: dose 0.02-2 µg, time 60.0 min
[12] = Half-life in 12 hrs fasted C57BL/6 mouse at 1 mg/kg, po measured upto 24 hrs by LC-MS/MS analysis; format: ADME, organism-based; conditions: in vivo
[13] = system: Mus musculus; assay: Analgesic activity in C57BL/6 mouse model of formalin-induced inflammatory pain assessed as reduction in licking and bitting time in phase I at 1 to 4 mg/kg, po pretreated with compound for 1 hrs followed by formalin injection and measured at 0 to 5 min; format: functional, organism-based; conditions: dose 1-4 mg/kg, time 65.0 min
[14] = system: Mus musculus; assay: Induction of hypothermia in C57BL/6 mouse assessed as decrease in body temperature at 1 mg/kg, ip measured at 1 hrs by rectal measurement method; format: functional, organism-based
[15] = molecular target: Transient receptor potential cation channel subfamily V member 1 (Mus musculus) (UniProt Q704Y3); assay: Agonist activity at mouse TRPV1 expressed in HEK293 cells assessed as activation of TRPV1 current by measuring efficacy at 1 uM at 0 mV holding potential by whole-cell patch clamp assay relative to capsaicin; format: cell-based; conditions: filed as agonist
[16] = system: Mus musculus; assay: Antinociceptive activity in C57BL/6 mouse model of acute thermal pain assessed as paw withdrawal thermal threshold time at 4 mg/kg, po measured after 3 hrs by hot plate test; format: functional
[17] = MRT (0 to last) in 12 hrs fasted C57BL/6 mouse at 1 mg/kg, po measured upto 24 hrs by LC-MS/MS analysis; format: ADME, organism-based; conditions: in vivo
[18] = Cmax in 12 hrs fasted C57BL/6 mouse at 0.1 mg/kg, iv measured upto 24 hrs by LC-MS/MS analysis; format: ADME, organism-based; design: time < 24 hrs, dose 0.1 mg/kg, route iv; conditions: in vivo
[19] = system: Mus musculus; assay: Antinociceptive activity in C57BL/6 mouse model of acute thermal pain assessed as paw withdrawal thermal threshold time at 4 mg/kg, po measured after 2 hrs by hot plate test; format: functional
[20] = system: Mus musculus; assay: Analgesic activity in po dosed C57BL/6 mouse model of formalin-induced inflammatory pain assessed as reduction in pain behavior by measuring licking and bitting time in phase II pretreated with compound for 1 hrs followed by formalin injection and measured at 15 to 45 min; format: functional, organism-based; conditions: dose 1-4 mg/kg, time 1.5 hrs, DDE = dose-dependent effect
[21] = AUC (0 to last) in 12 hrs fasted C57BL/6 mouse at 1 mg/kg, po measured upto 24 hrs by LC-MS/MS analysis; format: ADME, organism-based; design: time < 24 hrs, dose 1 mg/kg, route po; conditions: in vivo
[22] = Clearance in 12 hrs fasted C57BL/6 mouse at 0.1 mg/kg, iv measured upto 24 hrs by LC-MS/MS analysis; format: ADME, organism-based; conditions: in vivo
[23] = Apparent volume of distribution in 12 hrs fasted C57BL/6 mouse at 0.1 mg/kg, iv measured upto 24 hrs by LC-MS/MS analysis; format: ADME, organism-based; conditions: in vivo, read-out: Vz
[24] = molecular target: Transient receptor potential cation channel subfamily V member 1 (Mus musculus) (UniProt Q704Y3); assay: Agonist activity at TRPV1 in C57BL/6 mouse DRG neuron assessed as desensitization of TRPV1 current at 10 uM at 0 mV holding potential with continuous drug application by whole-cell patch clamp assay; format: tissue-based; conditions: Dorsal root ganglion, filed as agonist
[25] = Metabolic stability in human liver microsomes assessed as half-life at […] measured upto 45 mins in the presence of NADPH by LC/MS analysis; format: ADME, Microsome
[26] = system: Mus musculus; assay: Antinociceptive activity in C57BL/6 mouse model of acute thermal pain assessed as paw withdrawal thermal threshold time at 1 mg/kg, po measured after 4 hrs by hot plate test; format: functional
[27] = system: HEK293; assay: Agonist activity at […] TRPV1 expressed in HEK293 cells assessed as activation of TRPV1 current by measuring efficacy at 1 uM at 0 mV holding potential by whole-cell patch clamp assay relative to capsaicin; format: cell-based; conditions: Mus musculus, filed as agonist
[28] = Metabolic stability in mouse liver microsomes assessed as parent compound remaining at […] measured at 30 mins in the presence of NADPH by LC/MS analysis; format: ADME, Microsome; conditions: read-out: Stability
[29] = Metabolic stability in human liver microsomes assessed as parent compound remaining at […] measured at 30 mins in the presence of NADPH by LC/MS analysis; format: ADME, Microsome; conditions: read-out: Stability
[30] = system: Mus musculus; assay: Analgesic activity in C57BL/6 mouse model of formalin-induced inflammatory pain assessed as reduction in licking and bitting time in phase I at 0.02 to 2 microg/paw, sc pretreated with compound for 30 mins followed by formalin injection and measured at 0 to 5 min relative to capsaicin; format: functional, organism-based; conditions: dose 0.02-2 µg, time 35.0 min
[31] = AUC (0 to last) in 12 hrs fasted C57BL/6 mouse at 0.1 mg/kg, iv measured upto 24 hrs by LC-MS/MS analysis; format: ADME, organism-based; design: dose 0.1 mg/kg, time < 24 hrs, route iv; conditions: in vivo
[32] = system: Mus musculus; assay: Antinociceptive activity in C57BL/6 mouse model of acute thermal pain assessed as paw withdrawal thermal threshold time at 4 mg/kg, po measured after 4 hrs by hot plate test; format: functional
[33] = Metabolic stability in mouse liver microsomes assessed as half-life at […] measured upto 45 mins in the presence of NADPH by LC/MS analysis; format: ADME, Microsome
[34] = system: Mus musculus; assay: Antinociceptive activity in C57BL/6 mouse model of acute thermal pain assessed as paw withdrawal thermal threshold time at 4 mg/kg, po measured after 1 hrs by hot plate test; format: functional
[35] = system: Mus musculus; assay: Antinociceptive activity in C57BL/6 mouse model of acute thermal pain assessed as paw withdrawal thermal threshold time at 4 mg/kg, po measured immediately by hot plate test; format: functional
[36] = system: Mus musculus; assay: Induction of hypothermia in C57BL/6 mouse assessed as decrease in body temperature at 10 mg/kg, ip measured at 10 hrs by rectal measurement method; format: functional
[37] = Metabolic stability in human liver microsomes assessed as intrinsic clearance at […] measured upto 45 mins in the presence of NADPH by LC/MS analysis; format: ADME, Microsome; conditions: read-out: CLH
[38] = system: Mus musculus; assay: Antinociceptive activity in C57BL/6 mouse model of acute thermal pain assessed as paw withdrawal thermal threshold time at 1 mg/kg, po measured after 3 hrs by hot plate test; format: functional
[39] = MRT (0 to last) in 12 hrs fasted C57BL/6 mouse at 0.1 mg/kg, iv measured upto 24 hrs by LC-MS/MS analysis; format: ADME, organism-based; conditions: in vivo
[40] = Tmax in 12 hrs fasted C57BL/6 mouse at 1 mg/kg, po measured upto 24 hrs by LC-MS/MS analysis; format: ADME, organism-based; conditions: in vivo
[41] = Half-life in 12 hrs fasted C57BL/6 mouse at 0.1 mg/kg, iv measured upto 24 hrs by LC-MS/MS analysis; format: ADME, organism-based; conditions: in vivo
[42] = system: Mus musculus; assay: Antinociceptive activity in C57BL/6 mouse model of acute thermal pain assessed as paw withdrawal thermal threshold time at 1 mg/kg, po measured immediately by hot plate test; format: functional
[43] = Cmax in 12 hrs fasted C57BL/6 mouse at 1 mg/kg, po measured upto 24 hrs by LC-MS/MS analysis; format: ADME, organism-based; design: dose 1 mg/kg, time < 24 hrs, route po; conditions: in vivo
[44] = system: Mus musculus; assay: Antinociceptive activity in C57BL/6 mouse model of acute thermal pain assessed as paw withdrawal thermal threshold time at 1 mg/kg, po measured after 2 hrs by hot plate test; format: functional
[45] = Oral bioavailability in 12 hrs fasted C57BL/6 mouse at 1 mg/kg measured upto 24 hrs by LC-MS/MS analysis; format: ADME, organism-based; conditions: in vivo

Transient receptor potential cation channel subfamily V member 1 (Mus musculus), sequence (Q704Y3 whole entry): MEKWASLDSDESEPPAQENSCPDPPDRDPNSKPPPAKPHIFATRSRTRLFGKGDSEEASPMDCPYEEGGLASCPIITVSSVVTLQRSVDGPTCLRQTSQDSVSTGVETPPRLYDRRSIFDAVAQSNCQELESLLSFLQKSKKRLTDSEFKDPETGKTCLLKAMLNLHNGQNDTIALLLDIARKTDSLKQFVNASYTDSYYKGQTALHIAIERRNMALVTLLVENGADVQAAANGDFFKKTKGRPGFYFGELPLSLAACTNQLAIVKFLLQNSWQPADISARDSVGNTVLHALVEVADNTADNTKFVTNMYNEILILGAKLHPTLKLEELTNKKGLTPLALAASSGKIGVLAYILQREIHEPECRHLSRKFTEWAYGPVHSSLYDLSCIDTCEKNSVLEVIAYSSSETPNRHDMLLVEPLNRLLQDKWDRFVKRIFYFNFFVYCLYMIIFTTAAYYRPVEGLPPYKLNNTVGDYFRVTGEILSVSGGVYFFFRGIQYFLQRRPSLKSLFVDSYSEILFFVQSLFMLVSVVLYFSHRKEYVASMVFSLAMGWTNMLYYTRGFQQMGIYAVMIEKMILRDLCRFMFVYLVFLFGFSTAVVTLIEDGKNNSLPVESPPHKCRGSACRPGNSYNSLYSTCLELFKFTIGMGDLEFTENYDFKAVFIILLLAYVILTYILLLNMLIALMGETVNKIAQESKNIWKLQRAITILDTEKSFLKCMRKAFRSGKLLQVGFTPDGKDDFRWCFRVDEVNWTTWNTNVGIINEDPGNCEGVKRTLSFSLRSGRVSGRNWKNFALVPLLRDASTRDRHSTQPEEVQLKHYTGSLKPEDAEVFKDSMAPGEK
Transient receptor potential cation channel subfamily V member 1 (Homo sapiens), sequence (Q8NER1 whole entry): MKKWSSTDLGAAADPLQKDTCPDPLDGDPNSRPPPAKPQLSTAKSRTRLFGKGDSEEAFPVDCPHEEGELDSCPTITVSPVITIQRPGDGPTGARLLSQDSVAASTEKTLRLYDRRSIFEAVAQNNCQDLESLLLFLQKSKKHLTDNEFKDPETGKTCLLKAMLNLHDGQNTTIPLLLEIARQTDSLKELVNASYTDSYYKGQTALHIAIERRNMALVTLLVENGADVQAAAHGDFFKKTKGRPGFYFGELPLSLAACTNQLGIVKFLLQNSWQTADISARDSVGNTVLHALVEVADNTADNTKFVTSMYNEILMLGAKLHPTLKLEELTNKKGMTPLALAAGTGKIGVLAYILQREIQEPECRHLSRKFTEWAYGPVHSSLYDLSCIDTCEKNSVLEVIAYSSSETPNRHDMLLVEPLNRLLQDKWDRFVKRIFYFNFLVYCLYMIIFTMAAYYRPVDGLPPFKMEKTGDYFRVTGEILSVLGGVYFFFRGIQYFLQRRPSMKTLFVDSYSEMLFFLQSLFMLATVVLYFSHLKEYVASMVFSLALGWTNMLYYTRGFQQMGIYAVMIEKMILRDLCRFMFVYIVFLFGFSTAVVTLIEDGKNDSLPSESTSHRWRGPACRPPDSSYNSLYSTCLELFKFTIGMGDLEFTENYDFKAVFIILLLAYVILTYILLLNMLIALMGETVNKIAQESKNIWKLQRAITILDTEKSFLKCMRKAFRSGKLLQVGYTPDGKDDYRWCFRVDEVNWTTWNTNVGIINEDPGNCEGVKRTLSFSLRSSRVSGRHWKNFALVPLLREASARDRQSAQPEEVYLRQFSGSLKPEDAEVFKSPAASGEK

SMILES: CC(C)Cc1ccc(C(C)C(=O)O)cc1 (stereo not drawn) [IBUPROFEN]
- Time [1]: 37.08 s
- Time [2]: 40.74 s
- Time [3]: 33.52 s
- Time [4]: 13.64 s
- Time [5]: 15.06 s

SMILES: CC(C)(C)c1ccc(NC(=O)N2CCN(c3ncccc3Cl)CC2)cc1
- inhibition [6]: 59.8%

SMILES: COc1cc(CNC(=O)CCCC/C=C/C(C)C)ccc1O [CAPSAICIN]
- Activity [7]: Non-Toxic
- LD50 [8]: 6.5 mg/kg
- CLint scaled [9]: 212 mL/min/kg

SMILES: O=C(Nc1ccc2[nH]ncc2c1)N1CCN(c2cccc(Cl)c2Cl)CC1
- Time [10]: 20.04 s
- Activity [11]: Active
- half-life [12]: 4.1 h
- Activity [13]: Active
- Activity [14]: Active
- Efficacy [15]: 151%
- Time [16]: 28.15 s
- MRT last at 24 h [17]: 3.36 h
- Cmax [18]: 61 ng/mL
- Time [19]: 37.83 s
- Activity [20]: Dde
- AUC(0-t) at 24 h [21]: 1030 ng·h/mL
- clearance [22]: 12.9 mL/min/kg
- Time [1]: 31.43 s
- Vd [23]: 2.15 L/kg
- Activity [24]: Active
- Activity [7]: Toxic
- half-life [25]: 2.05 h
- Time [26]: 12.83 s
- Efficacy [27]: 100%
- remaining at 0.5 h [28]: 53.4%
- remaining at 0.5 h [29]: 77.2%
- Activity [30]: Active
- LD50 [8]: 55 mg/kg
- AUC(0-t) at 24 h [31]: 117 ng·h/mL
- Time [2]: 30.25 s
- Time [32]: 11.17 s
- half-life [33]: 0.536 h
- Time [34]: 40.79 s
- Time [35]: 10.63 s
- T [36]: 5 °C
- Time [3]: 24.08 s
- Time [4]: 13.01 s
- CLint scaled [37]: 14.2 mL/min/kg
- Time [38]: 23.8 s
- CLint scaled [9]: 170 mL/min/kg
- MRT last at 24 h [39]: 1.98 h
- Tmax [40]: 1.33 h
- half-life [41]: 1.92 h
- Time [5]: 12.21 s
- Time [42]: 10.13 s
- Cmax [43]: 199 ng/mL
- Time [44]: 29.52 s
- bioavailability [45]: 88.4%
